This passage reports IC50 results from ChEMBL document CHEMBL4270539, “Fibrogenic Disorders in Human Diseases: From Inflammation to Organ Dysfunction” (J Med Chem, 2018).

Test [1] addresses Sphingosine 1-phosphate receptor 2 (Homo sapiens, UniProt O95136). The class given is functional.
For test [2], the target named is Sphingosine 1-phosphate receptor 2 (Rattus norvegicus, UniProt P47752). The class given is functional.
Test [3] concerns the target CREB-binding protein (Homo sapiens, UniProt Q92793).

Sphingosine 1-phosphate receptor 2 (Rattus norvegicus, UniProt P47752), sequence (P47752 whole entry): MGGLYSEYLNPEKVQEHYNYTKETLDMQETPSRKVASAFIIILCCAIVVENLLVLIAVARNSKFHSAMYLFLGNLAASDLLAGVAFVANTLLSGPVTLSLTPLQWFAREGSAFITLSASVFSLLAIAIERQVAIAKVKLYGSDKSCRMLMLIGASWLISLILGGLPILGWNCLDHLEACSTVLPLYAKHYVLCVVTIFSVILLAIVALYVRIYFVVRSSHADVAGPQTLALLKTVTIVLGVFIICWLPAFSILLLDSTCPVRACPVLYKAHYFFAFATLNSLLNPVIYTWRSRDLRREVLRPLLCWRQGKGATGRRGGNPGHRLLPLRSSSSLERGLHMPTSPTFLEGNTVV
Sphingosine 1-phosphate receptor 2 (Homo sapiens, UniProt O95136), sequence (O95136 whole entry): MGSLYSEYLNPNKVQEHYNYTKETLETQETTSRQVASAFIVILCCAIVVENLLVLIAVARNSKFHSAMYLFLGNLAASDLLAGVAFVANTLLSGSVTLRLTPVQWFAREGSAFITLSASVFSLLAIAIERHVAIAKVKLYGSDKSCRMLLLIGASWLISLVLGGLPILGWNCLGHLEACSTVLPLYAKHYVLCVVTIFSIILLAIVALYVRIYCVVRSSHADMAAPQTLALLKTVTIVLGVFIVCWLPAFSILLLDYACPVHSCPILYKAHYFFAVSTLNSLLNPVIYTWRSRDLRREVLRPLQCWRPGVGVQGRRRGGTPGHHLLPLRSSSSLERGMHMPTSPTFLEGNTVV
CREB-binding protein, sequence (Q92793 whole entry): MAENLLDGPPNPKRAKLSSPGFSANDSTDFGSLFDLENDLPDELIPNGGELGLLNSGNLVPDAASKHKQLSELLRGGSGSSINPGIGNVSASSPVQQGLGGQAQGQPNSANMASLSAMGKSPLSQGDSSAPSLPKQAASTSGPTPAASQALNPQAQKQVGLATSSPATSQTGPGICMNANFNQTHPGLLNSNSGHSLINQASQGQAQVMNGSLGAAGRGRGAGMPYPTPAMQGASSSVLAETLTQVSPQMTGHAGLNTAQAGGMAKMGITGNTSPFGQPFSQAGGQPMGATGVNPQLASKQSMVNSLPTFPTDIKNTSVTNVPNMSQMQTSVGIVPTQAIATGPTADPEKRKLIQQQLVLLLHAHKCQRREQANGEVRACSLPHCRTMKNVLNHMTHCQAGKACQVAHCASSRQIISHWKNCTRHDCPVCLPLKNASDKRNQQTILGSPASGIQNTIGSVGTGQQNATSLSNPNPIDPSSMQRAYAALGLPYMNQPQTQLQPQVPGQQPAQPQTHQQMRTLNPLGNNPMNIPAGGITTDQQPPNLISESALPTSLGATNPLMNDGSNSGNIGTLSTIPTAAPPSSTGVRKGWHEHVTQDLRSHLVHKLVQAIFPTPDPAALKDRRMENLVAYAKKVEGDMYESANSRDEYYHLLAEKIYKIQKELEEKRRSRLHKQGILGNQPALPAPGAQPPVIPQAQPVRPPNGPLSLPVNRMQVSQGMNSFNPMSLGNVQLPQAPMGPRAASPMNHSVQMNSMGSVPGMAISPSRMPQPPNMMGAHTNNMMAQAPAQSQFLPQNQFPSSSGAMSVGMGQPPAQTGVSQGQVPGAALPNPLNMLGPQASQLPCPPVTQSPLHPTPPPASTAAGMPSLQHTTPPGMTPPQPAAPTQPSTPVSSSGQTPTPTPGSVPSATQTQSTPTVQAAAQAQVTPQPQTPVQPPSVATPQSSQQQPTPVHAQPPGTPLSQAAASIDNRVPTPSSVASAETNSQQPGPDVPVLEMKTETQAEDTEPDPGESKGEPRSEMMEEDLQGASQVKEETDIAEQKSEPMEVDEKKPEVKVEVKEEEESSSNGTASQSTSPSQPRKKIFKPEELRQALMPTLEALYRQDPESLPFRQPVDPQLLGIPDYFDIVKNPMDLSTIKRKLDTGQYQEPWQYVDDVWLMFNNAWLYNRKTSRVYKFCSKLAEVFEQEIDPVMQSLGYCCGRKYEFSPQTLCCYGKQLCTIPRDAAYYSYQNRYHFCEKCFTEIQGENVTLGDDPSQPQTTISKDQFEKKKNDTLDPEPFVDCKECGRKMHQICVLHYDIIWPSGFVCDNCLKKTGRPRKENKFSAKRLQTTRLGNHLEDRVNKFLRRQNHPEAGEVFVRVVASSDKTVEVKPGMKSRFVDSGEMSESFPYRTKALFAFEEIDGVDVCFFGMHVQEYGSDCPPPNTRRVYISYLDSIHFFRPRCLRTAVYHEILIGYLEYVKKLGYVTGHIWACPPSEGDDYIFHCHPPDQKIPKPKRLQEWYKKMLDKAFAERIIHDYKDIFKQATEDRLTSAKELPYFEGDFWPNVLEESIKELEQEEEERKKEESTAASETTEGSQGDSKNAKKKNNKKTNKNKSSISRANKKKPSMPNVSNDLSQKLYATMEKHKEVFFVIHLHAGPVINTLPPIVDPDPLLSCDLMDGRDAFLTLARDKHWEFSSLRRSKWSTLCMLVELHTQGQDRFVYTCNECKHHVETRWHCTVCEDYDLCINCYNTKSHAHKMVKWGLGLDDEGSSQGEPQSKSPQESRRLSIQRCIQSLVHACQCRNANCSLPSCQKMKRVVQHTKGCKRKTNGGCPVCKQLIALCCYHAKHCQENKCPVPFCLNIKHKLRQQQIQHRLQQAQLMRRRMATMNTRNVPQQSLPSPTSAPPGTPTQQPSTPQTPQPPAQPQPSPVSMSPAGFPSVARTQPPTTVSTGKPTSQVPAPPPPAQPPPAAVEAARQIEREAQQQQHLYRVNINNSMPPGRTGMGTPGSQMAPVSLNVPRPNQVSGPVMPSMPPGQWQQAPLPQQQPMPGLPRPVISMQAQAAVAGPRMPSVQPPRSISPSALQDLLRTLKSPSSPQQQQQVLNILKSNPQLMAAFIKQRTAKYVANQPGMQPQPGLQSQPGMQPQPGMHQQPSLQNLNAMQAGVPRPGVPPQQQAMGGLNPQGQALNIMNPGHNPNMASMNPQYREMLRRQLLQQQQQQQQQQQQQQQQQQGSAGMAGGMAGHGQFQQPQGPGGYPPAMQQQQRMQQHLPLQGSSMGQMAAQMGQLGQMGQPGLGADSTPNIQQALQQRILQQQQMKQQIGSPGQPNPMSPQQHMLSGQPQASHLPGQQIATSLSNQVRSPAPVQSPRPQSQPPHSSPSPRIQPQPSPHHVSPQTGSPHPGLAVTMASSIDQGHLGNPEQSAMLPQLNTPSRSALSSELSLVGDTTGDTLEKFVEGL

For the compound `Cc1nn(C)c2nc(NNC(=O)Nc3cc(Cl)nc(Cl)c3)cc(C(C)C)c12`, the IC50 in test [1] and in test [2] was 20 nM each time. `O=C1[C@H](Cc2ccc(O)cc2)N2C(=O)CCN(C(=O)NCc3ccccc3)[C@H]2CN1Cc1cccc2ccccc12` gave an IC50 in test [3] of 3000 nM.

The term IC50 denotes the concentration at which inhibition is half-maximal. Low values mean greater potency in that assay, high ones weaker potency in that assay.
